In patent US20220370416A1, “COMPOUNDS AND METHODS FOR TARGETED DEGRADATION OF KRAS” (Arvinas Operations, Inc., priority 2020, published 2022):

Experiments:
Format in all cases: cell-based
pErk [1] = assay: Erk signaling (pErk, total Erk) by immunoblot in SW1573 cells; conditions: SW1573, 2.5 μM
Experimental: (§1) Signaling kinetics were monitored during a 24 hour time course in MIA PaCa2, NCI-H23, and SW1573 cells treated with 2.5 μM LC-2. Modulation of Erk signaling by both MRTX and LC-2 occurs within 6 hours in MIA PaCa-2 and NCI-H23 cells (FIGS. 10A, 10B, and 11). pErk was suppressed by both compounds at 6 and 24 hours in each cell lines. […] Total Erk was increased in LC-2 treated cells compared to DMSO at all time points indicating the initiation of a positive feedback loop upon KRAS^G12C degradation and pErk inhibition.
(§2) NCI-H2030 (CRL-5914), MIA PaCa-2 (CRL-1420), NCI-H23 (CRL-5800), NCI-H358 (CRL-5807), and HCT-116 (CCL-247) cells were obtained from ATCC, expanded immediately, and frozen down. Vials were thawed and used within 20 passages. SW1573 cells were a gift from Arvinas and were handled in the same manner. NCI-H2030, NCI-H23, and NCI-H358 were cultured in RPMI (ATCC30-2001) supplemented with 10% FBS (Biological Industries; cat. no. S1480) and 1% Penicillin-Streptomycin (ThermoFisher; cat. no. 15140122). HCT-116 cells were maintained in high glucose DMEM (ThermoFisher; cat. no. 11965084) supplemented as above. MIA PaCa-2 cells were cultured in high glucose DMEM supplemented with 10% FBS, 2.5% horse serum (ThermoFisher; cat. no. 26050-088; lot 2109875), and 1% Penicillin-Streptomycin. SW1573 cells were maintained in DMEM/F12 Nutrient Mix with GlutaMAX supplement (ThermoFisher; cat. no. 10565018) with 10% FBS and 1% Penicillin-Streptomycin added. DPBS (ThermoFisher; cat. no. 14190250) was used to wash cells and 0.25% Trypsin-EDTA (ThermoFisher; cat. no. […]) was used to detach cells for passaging. […] The VHL ligand was generously provided by Arvinas. […]
(§3) Cell lysates were clarified at 21000×g for 15 mins at 4° C. Protein levels were quantified using a 50:1 mixture of bicinchoninic acid solution (Millipore Sigma; cat. no. B9643) and 4% (w/v) copper(II) sulfate solution (Millipore Sigma; cat. no. C2284) incubated at 37° C. for 30 mins. Absorbance values at 560 nm were read on an EnVision 2101 Multilabel Reader (PerkinElmer). […]

[2] = as above; conditions: SW1573, 2.5 μM, all time points
Experimental: as §1, §2, §3

KRAS^G12C = KRAS^G12C (Homo sapiens, UniProt P01116, G12C); assay: KRAS^G12C degradation in heterozygous NCI-H23 cells; set-up: endogenous in cells; host or cells: NCI-H23
pErk [3] = assay: Erk signaling (pErk) during a 24 hour treatment in SW1573 cells; conditions: 24 hour treatment time course (FIG. 11)

KRAS^G12C, sequence (P01116 1-188 isoform P01116-2 G12C): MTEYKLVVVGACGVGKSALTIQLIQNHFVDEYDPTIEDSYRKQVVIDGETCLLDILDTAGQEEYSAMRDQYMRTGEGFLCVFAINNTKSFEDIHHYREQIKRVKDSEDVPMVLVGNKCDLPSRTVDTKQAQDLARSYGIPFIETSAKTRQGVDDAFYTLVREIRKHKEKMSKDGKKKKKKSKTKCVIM

C=C(F)C(=O)N1CCN(c2nc(OC[C@@H]3CCCN3CCCOCCC(=O)N[C@H](C(=O)N3C[C@H](O)C[C@H]3C(=O)NCc3ccc(-c4scnc4C)cc3)C(C)(C)C)nc3c2CCN(c2cccc4cccc(Cl)c24)C3)C[C@@H]1CC#N [LC-2, (2S,4R)-1-((S)-2-(3-(3-((S)-2-(((7-(8-chloronaphthalen-1-yl)-4-((S)-3-(cyanomethyl)-4-(2-fluoroacryloyl)piperazin-1-yl)-5,6,7,8-tetrahydropyrido[3,4-d]pyrimidin-2-yl)oxy)methyl)pyrrolidin-1-yl)propoxy)propanamido)-3,3-dimethylbutanoyl)-4-hydroxy-N-(4-(4-methylthiazol-5-yl)benzyl)pyrrolidine-2-carboxamide]
phosphorylated Erk over time (pErk [1]; 24 hour time course): inhibited by 2.5 μM LC-2 between 1 and 4 hours, however pErk levels rebounded between 8 and 24 hours
pErk levels versus DMSO (pErk [1]; 24 hours): significantly lower
total Erk versus DMSO [2]: increased
rescue of induced KRAS^G12C degradation (mechanism) (KRAS^G12C; NCI-H23 cells, neddylation inhibition vs inhibition of lysosomal acidification (FIG. 5B)): Inhibition of neddylation, but not inhibition of lysosomal acidification, rescues
induction of KRAS^G12C degradation (KRAS^G12C; heterozygous NCI-H23 cells (FIG. 4D)): induces KRAS^G12C degradation
pErk (Erk signaling) (pErk [3]): pErk is decreased throughout the time course
